Laboratory results reported in patent US4857652A, “Chemiluminescent 1,2-dioxetane compounds” (priority 1988, dated 1989).

Key:
[1] = test system: alkaline phosphatase, Type VII-S from Bovine Intestinal Mucosa; experiment: Enzymatic triggering of chemiluminescence with alkaline phosphatase (bovine); assay type: biochemical; details: 2-amino-2-methyl-1-propanol buffer pH 10.3, 37° C., 10 μL enzyme suspension
Procedure: A cuvette containing 3 mL of a buffer solution of 2-amino-2-methyl-1-propanol (Sigma Chemical Co., pH=10.3, 1.5M) was placed in the black box at 37° C. A portion (200 μL) of the dioxetane stock solution (6d in CH2 Cl2) was added to this buffer solution. Subsequent addition of 10 μL of an alkaline phosphatase suspension [Sigma, Type VII-S from Bovine Intestinal Mucosa, suspension in 3.2M (NH4)2 SO4 ] gave rise to chemiluminescence over a period of approximately 2-3 min indicating the enzymatic triggering of the dioxetane.

[2] = 25° C.; cited from earlier work

Structure (SMILES) | period of chemiluminescence [1] [min] | rate of decomposition relative to protonated form (X=OH) [2]
O=P(O)(O)Oc1ccc2c(c1)Oc1ccccc1C21OOC12C1CC3CC(C1)CC2C3 (centres unmarked) [Dioxetane 6d, Dispiro[adamantane-2,3'-[1,2]dioxetane-4',9"-(3-phosphate-9H-xanthene]] | 2 to 3 | –
Oc1ccc(C23OCCOC2(c2ccccc2)OO3)cc1 (centres unmarked) [deprotonated dioxetane (X=O^-)] | – | 5.7×10^6 times
